Results on 14 compounds are retold here after patent US4694006A, “Acyl- or acyloxymethyl-allopurinol prodrugs” (priority 1983, dated 1987).

Converted amounts (≈) assume the structure as drawn. Counter-ions that a name gives are not always drawn. Like-named read-outs stand apart in the source and are kept apart here.

How the values of series [1] were obtained: (§1) The water-solubility and lipophilicity of the allopurinol drugs
(§2) The apparent partition coefficients (P) for some allopurinol derivatives and allopurinol were measured using the widely used 1-octanol-water system. Similarly, the solubility of the derivatives in water or aqueous buffer solutions was determined.

Series [2] can be described thus: In-vitro cleavage of allopurinol derivatives to allopurinol in pH 7.4 buffer at 37° C. To be noted: read-out: Half-time (t0.5) of the conversion to allopurinol, pH 7.4 buffer (converted). Format: physicochemical. The method, then: (§3) In-vitro cleavage of allopurinol derivatives
(§4) Solutions of various derivatives of allopurinol in aqueous buffer solutions or 80% human plasma solutions (pH 7.4) were kept at 37° C. The initial concentration of the derivatives was in the range 0.01-0.1 mg/ml. At various times an aliquot of the solutions was withdrawn and analyzed by HPLC for remaining derivative as well as for allopurinol. For the plasma solutions the aliquot withdrawn was deproteinized with ethanol or trichloroacetic acid and after centrifugation, the clear supernatant was injected on HPLC.
(§5) An HPLC method was used for the determination of allopurinol and its derivatives. In this method a reversed-phase LiChrosorb RP-8 column (250×4 mm) was eluated at ambient temperature with mixtures of methanol and 0.01M acetate buffer pH 4.5 or methanol and 0.03M phosphate buffer pH 7.0. The composition of the eluant was adjusted for each compound in order to provide an appropriate retention time. The flow rate was 1.2 ml/min and the column effluent was monitored spectrophotometrically at 252 nm or 274 nm. Quantitation of the compounds was done by measurement of peak heights.
(§6) The half-times of allopurinol formation from various derivatives at physiological conditions of pH and temperature are given in Table 2. It can be seen that in the presence of human plasma the rate of degradation is strongly accelerated, thus showing the susceptibility of the derivatives to undergo conversion into the parent active compound at conditions simiar to those prevailing in vivo.

Another series in a line: physchem. To be noted: water. The method, then:
as §1, §2

The nature of series [3]: In-vitro cleavage of allopurinol derivatives to allopurinol in 80% human plasma (pH 7.4) at 37° C. The series is classed as in vitro ADME. To be noted: 80% plasma, pH 7.4, 37° C, read-out: Half-time (t0.5) of the conversion to allopurinol, 80% human plasma (converted). As to the method:
as §3, §4, §5, §6

What is called log P is a log measure of how a compound divides between an organic and an aqueous phase. As usually defined, the solubility is the concentration that dissolves in the medium under given conditions. On to `NC(Cc1ccccc1)C(=O)OCn1ncc2c(=O)[nH]cnc21` (racemic) [1-(DL-Phenylalanyloxymethyl)allopurinol, 1-(DL-Phenylalanyloxymethyl)allopurinol (hydrobromide)], for which, in series [1] (pH 8), the “log P” value is given as 0.40. For the same compound, the half-life in series [2] was 0.667 h; in series [3] it was 9 min. Besides, the solubility in the series “physchem” was above 200 mg/mL.

`NC(C(=O)OCn1ncc2c(=O)[nH]cnc21)c1ccccc1` (racemic) [1-(DL-Phenylglycyloxymethyl)allopurinol, 1-(DL-Phenylglycyloxymethyl)allopurinol (hydrobromide)]: the “log P” value in series [1] (pH 8) is -0.15. The values for the half-life in series [2] and in series [3] were 0.333 h and 3 min, respectively. Moreover, in “physchem”, the solubility is above 200 mg/mL.

For the compound `CCCC(=O)OCn1cnc2c(cnn2COC(=O)CCC)c1=O` [1,5-bis(Butyryloxymethyl)allopurinol], the “log P” value in series [1] is listed as 1.82. Also, the half-life in series [2] was 25 h; in series [3], 22 min. In “physchem”, this compound returned a solubility of 0.05 mg/mL (≈ 149 µM).

On to `CC(=O)OCn1ncc2c(O)ncnc21` [1-(Acetoxymethyl)allopurinol, 1-(Acetyloxymethyl)allopurinol], for which the “log P” value in series [1] was -0.35. Moreover, the half-life in series [2] was 87 h; in series [3], 31 min. In the series “physchem”, the solubility amounted to 0.58 mg/mL (≈ 2790 µM).

With `CC(=O)n1ncc2c(O)ncnc21` [1-(Acetyl)allopurinol], in series [1], the “log P” value was -0.35. Besides, the half-life in series [2] was 0.433 h; in series [3], 6 min. For the same compound, the solubility in “physchem” was found to be 0.75 mg/mL (≈ 4210 µM).

Consider `CCCC(=O)n1ncc2c(O)ncnc21` [1-(Butyryl)allopurinol], for which the “log P” value in series [1] stood at 0.85. The values for the half-life in series [2] and in series [3] were 0.6 h and 2.5 min, respectively. Besides, the solubility in “physchem” stood at 0.11 mg/mL (≈ 533 µM).

With `CC(C)C[C@H](N)C(=O)OCn1ncc2c(=O)[nH]cnc21` [1-(L-Leucyloxymethyl)allopurinol, 1-(L-Leucyloxymethyl)allopurinol (hydrobromide)], the “log P” value in series [1] (pH 8) turned out to be 0.19. The half-life is 0.283 h in series [2] and 6 min in series [3]. Also, in the series “physchem”, the solubility was above 400 mg/mL.

As for `CN(C)CC(=O)OCn1ncc2c(=O)[nH]cnc21` [1-(N,N-Dimethylglycyloxymethyl)allopurinol (hydrochloride)], the “log P” value in series [1] (pH 8) is recorded as -0.49. Further, the half-life in series [2] was 1.2 h; in series [3], 7 min. Further, the solubility in the series “physchem” was above 500 mg/mL.

With `CCCN(CCC)CC(=O)OCn1ncc2c(=O)[nH]cnc21` [1-(N,N-Dipropylglycyloxymethyl)allopurinol (hydrochloride)], the “log P” value in series [1] (pH 8) is 1.27. Besides, the half-life in series [2] is 0.833 h; in series [3] it was 12 min. Further, the solubility in “physchem” was above 400 mg/mL.

Consider `O=C(OCn1ncc2c(=O)[nH]cnc21)c1cccnc1` [1-(Nicotinoyloxymethyl)allopurinol], for which the “log P” value in series [1] worked out at 0.27. Moreover, the figures for the half-life in series [2] and in series [3] were 26 h and 21 min, respectively. The same compound came in with a solubility in the series “physchem” of 0.093 mg/mL (≈ 343 µM).

`CCC(=O)n1ncc2c(O)ncnc21` [1-(Propionyl)allopurinol]: the “log P” value in series [1] was determined as 0.30. The values for the half-life in series [2] and in series [3] were 0.5 h and 4 min, respectively. The solubility in “physchem” was 0.3 mg/mL (≈ 1560 µM).

As to `CCN(CC)C(=O)CCC(=O)OCn1ncc2c(O)ncnc21` [1-[3-(N,N-Diethylcarbamoyl)propionyloxymethyl]allopurinol], in series [1], the “log P” value is reported as -0.22. Moreover, the results for the half-life in series [2] and in series [3] were 81 h and 504 min, respectively. In the series “physchem”, this compound yielded a solubility of 33 mg/mL (≈ 103000 µM).

Turning to `CCCC(=O)OCn1cc2c(=O)n(COC(=O)CCC)cnc2n1` [2,5-bis(Butyryloxymethyl)allopurinol], the “log P” value in series [1] is listed as 1.60. In addition, the half-life in series [2] is 35 h; in series [3], 32 min. Moreover, the solubility in the series “physchem” was found to be 0.094 mg/mL (≈ 279 µM).

As for `CCCC(=O)OCn1cc2c(=O)[nH]cnc2n1` [2-(Butyryloxymethyl)allopurinol], the “log P” value in series [1] amounted to 0.33. For the same compound, the figures for the half-life in series [2] and in series [3] were 54 h and 22 min, respectively. The same compound showed a solubility in “physchem” of 1.5 mg/mL (≈ 6350 µM).
